Reference: patent publication US10238665B2, “Methods for treating fungal infections” (BRIGHAM YOUNG UNIVERSITY, priority 2014, dated 2019)
Values after ≈ are worked out from the molar mass of the structure shown. Read-outs that look alike come from different tables or passages of the source.

Tests used:
[1] = system: 100 Candida auris isolates; experiment: Antifungal effectiveness against Candida auris, MIC by CLSI M27-A3; format: cell-based
Description: The antifungal effectiveness of CSA-131 was tested against 100 Candida auris isolates. The C. auris isolates were form all over the world and covered know C. auris clades. The selection included isolated known to have elevated MIC values against fluconazole, the echinocandins, and/or amphotericin B.
Testing was performed according to the standards of the Clinical and Laboratory Standards Institute reference methodology M27-A3 (as of 2017). CSA-131 was dissolved in DMSO and diluted as described in M27-A3 to give a final DMSO concentration of <1%. Dilution plates were stored at −70° C. until used and were used within one week of being produced. All results were read visually after 24 hours of incubation at the lowest drug concentration at which there was a 50% decrease in growth by visual inspection. Quality control isolates C. parapsilosis ATCC22019 and C. krusei ATCC6258 were included on each day of testing although there are no standard QC values for these isolates against this compound. The MIC values for ATCC22019 and ATCC6258 remained within a tight range of 1-2 dilutions over the course of the study.

[2] = system: C. galabrata (fluconazole resistant); experiment: MIC determination, broth microdilution (CLSI M27-A2); format: cell-based, Candida glabrata; conditions: 35° C., 24 hrs, 50% growth inhibition
Description: (§1) CSA 8 and CSA 13 were dissolved in dimethyl sulfoxide (DMSO) to create stock solutions. These solutions were applied to fungal isolates to determine the minimum inhibitory concentration (MIC) for each CSA.
(§2) An antifungal agent is serially diluted two-fold in a desired medium to produce ten concentrations of the antifungal under investigation. The range used is chosen to include achievable serum levels of the drug. A standardized inoculum of either yeast cells or conidia is diluted in an equal volume of the desired medium. The yeast or conidia inoculum is incubated in the serially diluted drug wells at 35° C. Two wells are used as controls. The negative control well has only media and serves as a sterility control. The positive control well has the standardized inoculum with no drug, and is used to compare with the amount of growth in the drug wells.
(§3) Testing is reported as an MIC, or minimum inhibitory concentration in μg/ml. This number represents the concentration at which the organism's growth in inhibited 50% from the control well for yeasts, and 80% for dermatophytes and certain filamentous fungi/antifungal combinations. Amphotericin B readings are taken at 100% inhibition.
(§4) Fungal cultures were prepared as follows: • 1. Grow Candida sp. on a potato dextrose agar plate for 24 hrs. at 35° C. Grow Cryptococcus sp. for 48 hrs. • 2. […]

[3] = system: Trichophyton rubrum; experiment: MIC determination, broth microdilution (CLSI M38-A); format: cell-based; conditions: 35° C., 80% growth inhibition for dermatophytes
Description: as §1, §2, §3
(§5) Fungal cultures were prepared as follows: • 1. Grow Candida sp. on a potato dextrose agar plate for 24 hrs. at 35° C. Grow Cryptococcus sp. for 48 hrs. • 2. Pick 5 colonies >1 mm in diameter to 5 ml of 0.85% sterile saline in a sterile 15 ml conical tube and vortex. • 3. Count the cells using a hemacytometer • 4. Prepare a working suspension of yeast cells in RPMI-1640 to a final concentration of 2-5×10^3 CFU/ml (CFU=colony forming units or yeast cells) • 5. Prepare at least 2.5 ml of the working yeast suspension per drug per plate.
(§6) Plates were prepared as follows: • 1. Aseptically dispense RPMI-1640 into a 25 ml reservoir. • 2. Using a multichannel pipette with 8 tips, dispense 100 μl of RPMI-1640 into the wells of a 96 well round bottom plate in columns 11 and 12. These will serve as growth controls and sterility controls, respectively. • 3. Remove excess liquid from the reservoir. • 4. Add the lowest concentration of antifungal from the set of final concentrations to the reservoir, and using the same set of tips, dispense 100 μl into the wells of column 10. • 5. Repeat steps 4-5 for each final concentration, working from lowest to highest concentration into columns 9 through 1, until all columns are filled. • 6. Using a new set of pipette tips and a new reservoir, add 100 μl of inoculum to each well except […]. • 7. Run each organism in duplicate (i.e. add isolate one to rows 1 and 2, isolate two to rows 3 and four, etc.) • 8. Incubate the plates at 35° C. for 24 hrs. for Candida sp. and 72 hrs. for Cryptococcus sp. • Similar procedures are followed for Aspergillus sp., Trichophyton sp., and Microsporum sp.
(§7) Stock solutions of water-soluble and water insoluble antifungal agents were prepared according to standard laboratory procedures.
(§8) Antifungal susceptibility testing gives a numerical result expressed in μg/ml indicating an in vitro MIC, or minimum inhibitory concentration, of the drug being investigated. The Clinical and Laboratory Standards Institute (CLSI) has provided guidelines for standardized microdilution broth testing (CLSI M27-A2 for yeasts and CLSI M38-A for filamentous molds), which is followed in the above procedure. The CLSI has also published guidelines for interpretation of MIC results based on clinical correlation studies for yeasts.

[4] = system: Aspergillus fumigatus; experiment: as above; format: cell-based; conditions: 35° C.
Description: as §1, §2, §3, §5, §6, §7, §8

[5] = system: Cladosporium sp.; experiment: as above; format: cell-based; conditions: 35° C.
Description: as §1, §2, §3, §5, §6, §7, §8

[6] = system: Microsporum canis; experiment: as above; format: cell-based; conditions: 35° C., 80% growth inhibition for dermatophytes
Description: as §1, §2, §3, §5, §6, §7, §8

[7] = system: Penicillium sp.; experiment: as above; format: cell-based; conditions: 35° C.
Description: as §1, §2, §3, §5, §6, §7, §8

[8] = system: Aspergillus niger; experiment: as above; format: cell-based; conditions: 35° C.
Description: as §1, §2, §3, §5, §6, §7, §8

[9] = system: C. guilliermondii; experiment: Additional MIC experiments (CSA-13 and squalamine); format: cell-based, Candida guilliermondii
Description: as §2, §3
(§9) Fungal cultures were prepared as follows: • 1. Grow Candida sp. on a potato dextrose agar plate for 24 hrs. at 35° C. Grow Cryptococcus sp. for 48 hrs. • 2. Pick 5 colonies >1 mm in diameter to 5 ml of 0.85% sterile saline in a sterile 15 ml conical tube and vortex. • 3. Count the cells using a hemacytometer • 4. […]

[10] = system: C. albicans (fluconazole resistant); experiment: MIC determination, broth microdilution (CLSI M27-A2); format: cell-based, Candida albicans; conditions: 35° C., 24 hrs, 50% growth inhibition
Description: as §1, §2, §3, §4

[11] = system: T. mentagrophytes; experiment: MIC determination, broth microdilution (CLSI M38-A); format: cell-based, Trichophyton mentagrophytes; conditions: 35° C., 80% growth inhibition for dermatophytes
Description: as §1, §2, §3, §4

[12] = system: T. rubrum (terbinafine resistant); experiment: as above; format: cell-based, Trichophyton rubrum; conditions: 35° C., 80% growth inhibition for dermatophytes
Description: as §1, §2, §3, §4

[13] = system: Cryptococcus neofermans; experiment: Additional MIC experiments (CSA-13 and squalamine); format: cell-based, Cryptococcus neoformans
Description: as §2, §3, §9

[14] = system: C. krusei; experiment: MIC determination, broth microdilution (CLSI M27-A2); format: cell-based, Candida krusei; conditions: 35° C., 24 hrs, 50% growth inhibition
Description: as §1, §2, §3, §4

[15] = system: C. krusei (fluconazole resistant); experiment: as above; format: cell-based, Candida krusei; conditions: 35° C., 24 hrs, 50% growth inhibition
Description: as §1, §2, §3, §4

[16] = system: C. tropicalis; experiment: Additional MIC experiments (CSA-13 and squalamine); format: cell-based, Candida tropicalis
Description: as §2, §3, §9

[17] = system: Candida albicans; experiment: MIC determination, broth microdilution (CLSI M27-A2); format: cell-based; conditions: 35° C., 24 hrs, 50% growth inhibition
Description: as §1, §2, §3, §4

[18] = system: C. parapsilosis; experiment: as above; format: cell-based, Candida parapsilosis; conditions: 35° C., 24 hrs, 50% growth inhibition
Description: as §1, §2, §3, §4

[19] = system: T. tonsurans; experiment: MIC determination, broth microdilution (CLSI M38-A); format: cell-based, Trichophyton tonsurans; conditions: 35° C., 80% growth inhibition for dermatophytes
Description: as §1, §2, §3, §4

[20] = system: C. lusitaniae; experiment: Additional MIC experiments (CSA-13 and squalamine); format: cell-based, Candida lusitaniae
Description: as §2, §3, §9

[21] = system: C. glabrata; experiment: Additional MIC experiments (CSA-13 and squalamine); format: cell-based, Candida glabrata
Description: as §2, §3, §9

[22] = C. auris isolates with elevated echinocandin MICs, 7 isolates

CCCCCCCCCCCCNCCC[C@@H](C)[C@H]1CC[C@H]2[C@@H]3[C@H](OCCCN)C[C@@H]4C[C@H](OCCCN)CC[C@]4(C)[C@H]3C[C@H](OCCCN)[C@]12C [CSA-131]
MIC Range ([1]; 100 C. auris isolates, 24 hours, 50% decrease in growth): 0.5 to 1 µg/mL | MIC Range ([1]; C. auris Clade 1, 47 isolates): 0.5 to 1 µg/mL | MIC90 ([1]; C. auris Clade 2, 11 isolates): 1 µg/mL (≈ 1.36 µM) | MIC Range ([1]; C. auris Clade 2, 11 isolates): 0.5 to 1 µg/mL | MIC90 ([1]; C. auris Clade 3, 39 isolates): 1 µg/mL (≈ 1.36 µM) | MIC Range ([1]; C. auris Clade 3, 39 isolates): 0.5 to 1 µg/mL | MIC90 ([1]; C. auris Clade 4, 3 isolates): 1 µg/mL (≈ 1.36 µM) | MIC Range ([1]; C. auris Clade 4, 3 isolates): 0.5 to 1 µg/mL | MIC90 [1, 22]: 1 µg/mL (≈ 1.36 µM) | MIC Range [1, 22]: 0.5 to 1 µg/mL | MIC50 ([1]; Candidozyma auris, 24 h, 100 C. auris isolates, 24 hours, 50% decrease in growth, read-out: MIC50): 1 µg/mL (≈ 1.36 µM) | MIC ([1]; Candidozyma auris, 24 h, 100 C. auris isolates, 24 hours, 50% decrease in growth, read-out: MIC Mode): 1 µg/mL (≈ 1.36 µM) | MIC50 ([1]; Candidozyma auris, C. auris Clade 1, 47 isolates, read-out: MIC50): 1 µg/mL (≈ 1.36 µM) | MIC90 ([1]; Candidozyma auris, C. auris Clade 1, 47 isolates, read-out: MIC90): 1 µg/mL (≈ 1.36 µM) | MIC ([1]; Candidozyma auris, C. auris Clade 1, 47 isolates, read-out: MIC Mode): 1 µg/mL (≈ 1.36 µM) | MIC50 ([1]; Candidozyma auris, C. auris Clade 2, 11 isolates, read-out: MIC50): 1 µg/mL (≈ 1.36 µM) | MIC ([1]; Candidozyma auris, C. auris Clade 2, 11 isolates, read-out: MIC Mode): 1 µg/mL (≈ 1.36 µM) | MIC50 ([1]; Candidozyma auris, C. auris Clade 3, 39 isolates, read-out: MIC50): 1 µg/mL (≈ 1.36 µM) | MIC ([1]; Candidozyma auris, C. auris Clade 3, 39 isolates, read-out: MIC Mode): 1 µg/mL (≈ 1.36 µM) | MIC50 ([1]; Candidozyma auris, C. auris Clade 4, 3 isolates, read-out: MIC50): 0.5 µg/mL (≈ 0.682 µM) | MIC ([1]; Candidozyma auris, C. auris Clade 4, 3 isolates, read-out: MIC Mode): 0.5 µg/mL (≈ 0.682 µM) | MIC50 ([1]; Candidozyma auris, C. auris isolates with elevated echinocandin MICs, 7 isolates, read-out: MIC50): 1 µg/mL (≈ 1.36 µM) | MIC ([1]; Candidozyma auris, C. auris isolates with elevated echinocandin MICs, 7 isolates, read-out: MIC Mode): 1 µg/mL (≈ 1.36 µM) | MIC50 ([1]; Candidozyma auris, fluconazole Resistant C. auris isolates, 69 isolates): 1 µg/mL (≈ 1.36 µM) | MIC50 ([1]; Candidozyma auris, fluconazole Susceptible C. auris isolates, 30 isolates): 0.5 µg/mL (≈ 0.682 µM) | MIC ([1]; Candidozyma auris, read-out: MIC Mode, fluconazole Resistant C. auris isolates, 69 isolates): 1 µg/mL (≈ 1.36 µM) | MIC90 ([1]; Candidozyma auris, 100 C. auris isolates, 24 hours, 50% decrease in growth, read-out: MIC90): 1 µg/mL (≈ 1.36 µM) | activity against C. auris (in words) ([1]; collection of 100 C. auris isolates, 4 clades): showed activity against all C. auris among this collection | MIC90 ([1]; {}): 1 µg/mL (≈ 1.36 µM) | MIC Range ([1]; {}): 0.5 to 1 µg/mL

CCCCCCCCNCCC[C@@H](C)[C@H]1CC[C@H]2[C@@H]3[C@H](OCCCN)C[C@@H]4C[C@H](OCCCN)CC[C@]4(C)[C@H]3C[C@H](OCCCN)[C@]12C [CSA 13]
MIC [2]: 2 µg/mL | MIC [3]: 4 µg/mL | MIC [4]: 8 µg/mL | MIC [5]: 0.5 µg/mL | MIC [6]: 2 µg/mL | MIC [7]: 0.5 µg/mL | MIC [8]: 2 µg/mL | MIC ([9]; C. guilliermondii): 0.5 µg/mL | MIC [10]: 2 µg/mL | MIC [11]: 2 µg/mL | MIC [12]: 4 µg/mL | MIC ([13]; Cryptococcus neofermans): 0.5 µg/mL | MIC [14]: 2 µg/mL | MIC [15]: 1 µg/mL | MIC ([16]; C. tropicalis): 0.5 µg/mL | MIC [17]: 2 µg/mL | MIC [18]: 2 µg/mL | MIC [19]: 2 µg/mL | MIC ([20]; C. lusitaniae): 0.5 µg/mL | MIC ([21]; C. glabrata): 0.5 µg/mL

CC(C)[C@@H](CC[C@@H](C)[C@H]1CC[C@H]2[C@@H]3[C@H](O)C[C@H]4C[C@@H](NCCCNCCCCN)CC[C@]4(C)[C@H]3CC[C@]12C)OS(=O)(=O)O [Squalamine, squalamine, reference compound]
MIC ([9]; Meyerozyma guilliermondii): 4 µg/mL | MIC ([13]; Cryptococcus): 4 µg/mL | MIC ([16]; Candida tropicalis): 4 µg/mL | MIC ([20]; Clavispora lusitaniae): 4 µg/mL | MIC ([21]; Nakaseomyces glabratus): 2 µg/mL
